Assay: xn = mol fraction of the nth substance listed

CCCOC(=O)CCC + CCCCCCCCCC
298.15 K, 101.33 kPa
Settings | viscosity [mPa·s]
x2 = 0.107 | 0.775
x2 = 0.1388 | 0.773
x2 = 0.1735 | 0.771
x2 = 0.2644 | 0.768
x2 = 0.3659 | 0.768
x2 = 0.4232 | 0.769
x2 = 0.5092 | 0.773
x2 = 0.6715 | 0.79
x2 = 0.7654 | 0.804
x2 = 0.8807 | 0.828
x2 = 0.9329 | 0.841

CC(C)CCCC(C)CCCC(C)CCCCC(C)CCCC(C)CCCC(C)C (configuration not stated) + CC(C)CO
101 kPa
Settings | viscosity [mPa·s]
298.15 K, x2 = 0.1032 | 22.85
308.15 K, x2 = 0.1672 | 13.45

Fc1ccccc1 + O=CN1CCOCC1
viscosity [mPa·s], 101 kPa
Settings | x2 = 0.0946 | x2 = 0.1904 | x2 = 0.2873 | x2 = 0.3854 | x2 = 0.4847 | x2 = 0.5853 | x2 = 0.687 | x2 = 0.79 | x2 = 0.8944
303.15 K | 0.72 | 0.957 | 1.245 | 1.595 | 2.028 | 2.579 | 3.265 | 4.113 | 5.175
308.15 K | 0.677 | 0.895 | 1.157 | 1.466 | 1.846 | 2.325 | 2.919 | 3.64 | 4.539
313.15 K | 0.641 | 0.845 | 1.079 | 1.361 | 1.711 | 2.139 | 2.669 | 3.314 | 4.111

CC(F)F + FC(F)C(F)(F)F
viscosity [mPa·s], 101 kPa
Settings | x2 = 0.248 | x2 = 0.504 | x2 = 0.758
298.15 K | 0.1447 | 0.1487 | 0.1533
313.15 K | 0.1172 | 0.1234 | 0.13

CCCCCCCCCCCCO + CCCCCCCCO
viscosity [mPa·s], 101.8 kPa
Settings | x2 = 0.1377 | x2 = 0.3798 | x2 = 0.589 | x2 = 0.7701 | x2 = 0.9281
298.15 K | 15.08 | 12.91 | 11.11 | 9.509 | 8.204
308.15 K | 10.21 | 8.958 | 7.745 | 6.704 | 5.873
318.15 K | 7.201 | 6.357 | 5.553 | 4.856 | 4.284

NCCO.O=CO + CCO
viscosity [mPa·s], 101 kPa
Settings | x2 = 0.6996 | x2 = 0.7776 | x2 = 0.8461 | x2 = 0.9031 | x2 = 0.9294 | x2 = 0.9544 | x2 = 0.9779
293.15 K | 12.34 | 7.77 | 5.01 | 3.318 | 2.76 | 2.28 | 1.86
298.15 K | 10.54 | 6.762 | 4.44 | 3 | 2.502 | 2.064 | 1.71
303.15 K | 9.078 | 5.97 | 3.984 | 2.73 | 2.268 | 1.902 | 1.584

Cc1ccc(C)cc1 + CCCCO
Settings | viscosity [mPa·s]
298.15 K, 101.33 kPa, x2 = 0.1504 | 0.636
298.15 K, 101.33 kPa, x2 = 0.2649 | 0.692
298.15 K, 101.33 kPa, x2 = 0.3971 | 0.797
298.15 K, 101.33 kPa, x2 = 0.5009 | 0.914
298.15 K, 101.33 kPa, x2 = 0.585 | 1.047
298.15 K, 101.33 kPa, x2 = 0.6932 | 1.275
298.15 K, 101.33 kPa, x2 = 0.7688 | 1.493
308.15 K, 101 kPa, x2 = 0.0495 | 0.551
308.15 K, 101 kPa, x2 = 0.1136 | 0.553
308.15 K, 101 kPa, x2 = 0.206 | 0.562
308.15 K, 101 kPa, x2 = 0.3224 | 0.592
308.15 K, 101 kPa, x2 = 0.4051 | 0.647
308.15 K, 101 kPa, x2 = 0.5098 | 0.724
308.15 K, 101 kPa, x2 = 0.6322 | 0.796
308.15 K, 101 kPa, x2 = 0.7241 | 0.937
308.15 K, 101 kPa, x2 = 0.8216 | 1.118
308.15 K, 101 kPa, x2 = 0.9035 | 1.327
308.15 K, 101 kPa, x2 = 0.9621 | 1.619

CC(C)CCCC(C)CCCC(C)CCCCC(C)CCCC(C)CCCC(C)C (configuration not stated) + CCCC
viscosity [mPa·s]
Settings | x1 = 0.161 | x1 = 0.162 | x1 = 0.316 | x1 = 0.319 | x1 = 0.555 | x1 = 0.559 | x1 = 0.721 | x1 = 0.724
293.15 K, 101 kPa | 1.06 | – | 3 | – | 9.55 | – | 16.5 | –
293.15 K, 101.33 kPa | 1.06 | – | 3 | – | 9.55 | – | 16.5 | –
313.15 K, 101 kPa | – | 0.797 | – | 2.04 | – | 5.26 | – | 8.16
313.15 K, 101.33 kPa | – | 0.797 | – | 2.04 | – | 5.26 | – | 8.16

[Cl-].[Cl-].[Cl-].[Cl-].[Ge+4] + CCOCC
293.15 K, 101 kPa
Settings | viscosity [mPa·s]
x2 = 0.2064 | 0.5
x2 = 0.4027 | 0.415
x2 = 0.5137 | 0.376
x2 = 0.6832 | 0.309
x2 = 0.7964 | 0.279

c1ccc(Nc2ccccc2)cc1 + CCN(CC)c1ccccc1
viscosity [mPa·s], 101 kPa
Settings | x1 = 0.1169 | x1 = 0.2161 | x1 = 0.4308 | x1 = 0.5654 | x1 = 0.6688 | x1 = 0.7545 | x1 = 0.8327 | x1 = 0.949
298.15 K | 2.41 | 2.98 | 4.63 | 6.52 | 8.13 | – | – | –
323.15 K | 1.35 | 1.58 | 2.22 | 2.9 | 3.31 | 3.82 | 4.49 | 5.4

CCCOC(=O)CCC + CCCCCCCCCCCCCC
298.15 K, 101.33 kPa
Settings | viscosity [mPa·s]
x2 = 0.0852 | 0.852
x2 = 0.1135 | 0.877
x2 = 0.154 | 0.911
x2 = 0.2133 | 0.967
x2 = 0.2994 | 1.054
x2 = 0.3667 | 1.127
x2 = 0.4774 | 1.25
x2 = 0.6061 | 1.413
x2 = 0.7085 | 1.558
x2 = 0.8446 | 1.786
x2 = 0.9178 | 1.909

CCCC[N+](CCCC)(CCCC)CCCC.[Cl-] + CC(C)C[C@H](N)C(=O)O
Settings | viscosity [mPa·s]
313.15 K, 100 kPa, x1 = 0.9 | 943

O=C(O)C(Cl)Cl + [Cl-].[Cl-].[Cl-].[Cl-].[Sn+4]
viscosity [mPa·s], 101 kPa
Settings | x2 = 0.1 | x2 = 0.2027 | x2 = 0.3211 | x2 = 0.5002 | x2 = 0.805
308.15 K | 3.657 | 2.621 | 2.121 | 1.445 | 0.831
323.15 K | 2.609 | 1.982 | 1.63 | 1.09 | 0.705

Cc1ccc(C)cc1 + CC(C)=O
307.35 K, 101.33 kPa
Settings | viscosity [mPa·s]
x2 = 0.1403 | 0.5
x2 = 0.4308 | 0.429
x2 = 0.5768 | 0.4
x2 = 0.6298 | 0.385
x2 = 0.7285 | 0.353
x2 = 0.9118 | 0.311

CCCCCCCCN + CCOCCO
308.15 K, 101 kPa
Settings | viscosity [mPa·s]
x2 = 0.1595 | 1.136
x2 = 0.4226 | 1.512
x2 = 0.5324 | 1.655
x2 = 0.6307 | 1.75
x2 = 0.7193 | 1.725
x2 = 0.7994 | 1.654
x2 = 0.8723 | 1.568
x2 = 0.9389 | 1.497

CC(C)CCCC(C)CCCC(C)CCCC(C)C (configuration not stated) + CCCCCCCCCCCCCCCC
298.15 K, 101.33 kPa
Settings | viscosity [mPa·s]
x2 = 0.0966 | 5.129
x2 = 0.1996 | 4.843
x2 = 0.2995 | 4.565
x2 = 0.3995 | 4.303
x2 = 0.4994 | 4.063
x2 = 0.5995 | 3.839
x2 = 0.6995 | 3.631
x2 = 0.8001 | 3.438
x2 = 0.85 | 3.332

[Br-].[Br-].[Br-].[Br-].[Sn+4] + Oc1ccccc1
313.15 K, 101 kPa
Settings | viscosity [mPa·s]
x1 = 0.1 | 4.21
x1 = 0.2 | 3.817
x1 = 0.3 | 3.351
x1 = 0.4 | 3.034
x1 = 0.5 | 2.762
x1 = 0.6 | 2.56
x1 = 0.7 | 2.387
x1 = 0.8 | 2.262
x1 = 0.9 | 2.137

CCCCCCCCN + CCN(CC)CC
viscosity [mPa·s], 101.33 kPa
Settings | x2 = 0.1056 | x2 = 0.2038 | x2 = 0.4151 | x2 = 0.4978 | x2 = 0.6055 | x2 = 0.8063 | x2 = 0.9007
303.15 K | 1.021 | 0.9064 | 0.7044 | 0.6396 | 0.5641 | 0.4488 | 0.4031
313.15 K | 0.8659 | 0.7719 | 0.6062 | 0.5533 | 0.4916 | 0.3975 | 0.3611
